Numbers after ± are expanded uncertainties.
Tests used:
[1] = Liquid, Ebulliometric method (Recirculating still)
[2] = refractive index (Na D-line) (dimensionless); settings: 293.15 K; 101.33 kPa; Liquid; Standard Abbe refractometry

vapor or sublimation pressure ([1]; 323.21 K) | vapor or sublimation pressure ([1]; 328.17 K) | vapor or sublimation pressure ([1]; 333.21 K) | vapor or sublimation pressure ([1]; 338.17 K) | vapor or sublimation pressure ([1]; 343.21 K) | vapor or sublimation pressure ([1]; 348.16 K) | refractive index [2] | Structure (SMILES)
29.58 ± 0.97 kPa | 37.53 ± 0.98 kPa | 47.04 ± 1 kPa | 58.6 ± 1.1 kPa | 72.39 ± 1.1 kPa | 88.83 ± 1.1 kPa | 1.3616 ± 0.002 | CCO [ethanol]
2.417 ± 0.92 kPa |  | 4.027 ± 0.92 kPa |  | 6.331 ± 0.92 kPa |  | 1.4074 ± 0.002 | CCCCCCCCC [nonane]
 | 1.18 ± 0.92 kPa |  | 1.93 ± 0.92 kPa |  | 3.24 ± 0.92 kPa | 1.4122 ± 0.002 | CCCCCCCCCC [decane]

From the NIST ThermoML archive (doi:10.1021/acs.jced.7b00875)
